In brackets after ≈: the same amount, converted by molar mass. Values belong to the molecule of their own block, whether it stands above or below them. Activity calls are given as the source filed them. The rule behind the calls is not given here.
Key:
[1] = target: T1, P2Y purinoceptor 14 (Homo sapiens) (UniProt Q15391); experiment: Antagonist activity at human P2Y14R expressed in HEK293 cells assessed as inhibition of UDPG-induced Ca2+ level at 5 uM by Fluo-4 dye based fluorescence assay relative to control; format: functional, cell-based
T1 sequence (whole entry): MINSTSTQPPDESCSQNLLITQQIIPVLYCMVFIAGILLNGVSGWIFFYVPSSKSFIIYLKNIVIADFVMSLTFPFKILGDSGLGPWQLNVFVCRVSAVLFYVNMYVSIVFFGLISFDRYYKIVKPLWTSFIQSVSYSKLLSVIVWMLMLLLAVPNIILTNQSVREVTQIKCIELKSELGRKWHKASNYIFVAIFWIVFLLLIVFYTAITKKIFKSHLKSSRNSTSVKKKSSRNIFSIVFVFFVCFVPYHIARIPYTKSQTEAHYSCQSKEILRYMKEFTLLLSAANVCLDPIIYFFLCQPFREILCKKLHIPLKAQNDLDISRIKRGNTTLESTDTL

P2Y purinoceptor 14 [2] = target: T2, P2Y purinoceptor 14 (Homo sapiens, UniProt Q15391); experiment: Antagonist activity at human P2Y14R expressed in HEK293 cells assessed as inhibition of UDPG-induced Ca2+ level by Fluo-4 dye based fluorescence assay; format: functional, cell-based
T2 sequence (Q15391 whole entry): T1 sequence (whole entry)

[3] = Cmax in SD […] at 10 mg/kg, po; format: ADME, organism-based; conditions: in vivo
[4] = Tmax in SD […] at 10 mg/kg, po; format: ADME, organism-based; conditions: in vivo
Mus musculus [5] = experiment: (§1) Antiinflammatory activity in LPS-induced C57BL/6 mouse ALI model assessed as reduction in neutrophil infiltration at 2 mg/kg, po administered once daily via gavage for 7 days followed by endotoxin challenge at 1 hr post last dose and subsequent LPS stimulation and measured after 24 hrs by H and E staining based histopathological assay; format: functional, organism-based; conditions: time 8.0 day
[6] = target: T1, P2Y purinoceptor 14 (Homo sapiens); experiment: (§2) Binding affinity to P2Y14R (unknown origin) assessed as increase in response unit by surface plasmon resonance assay; conditions: filed as antagonist
P2Y purinoceptor 14 [7] = target: T2, P2Y purinoceptor 14; experiment: as §2
[8] = Oral bioavailability in SD […] at 10 mg/kg; format: ADME, organism-based; conditions: in vivo
Mus musculus [9] = experiment: as §1, with “at 6” for “at 2”; format: functional, organism-based; conditions: time 8.0 day
[10] = Aqueous solubility of the compound in pH 7.4 PBS buffer measured after 24 hrs by shake flask method; format: physicochemical
Mus musculus [11] = experiment: (§3) Antiinflammatory activity in LPS-induced C57BL/6 mouse ALI model assessed as reduction in IL-1beta expression in BALF at 2 to 6 mg/kg, po administered once daily via gavage for 7 days followed by endotoxin challenge at 1 hr post last dose and subsequent LPS stimulation and measured after 24 hrs by ELISA; format: functional, organism-based; conditions: dose 2-6 mg/kg, time 8.0 day
[12] = Cmax in SD […] at 5 mg/kg, iv; format: ADME, organism-based; conditions: in vivo
Mus musculus [13] = experiment: as §1, with “as appearance of intact alveolar structures” for “as reduction in neutrophil infiltration”, “at 6” for “at 2”; format: functional, organism-based; conditions: time 8.0 day
Mus musculus [14] = experiment: Antiinflammatory activity in LPS-induced C57BL/6 mouse ALI model assessed as reduction in MPO level in BALF at 6 mg/kg, po administered once daily via gavage for 7 days followed by endotoxin challenge at 1 hr post last dose and subsequent LPS stimulation and measured after 24 hrs by ELISA; format: functional, organism-based; conditions: time 8.0 day
Mus musculus [15] = experiment: as §1, with “in alveolar wall thickening” for “in neutrophil infiltration”, “at 6” for “at 2”; format: functional, organism-based; conditions: time 8.0 day
Mus musculus [16] = experiment: as §1, with “inflammatory response in lung” for “neutrophil infiltration at 2 mg/kg, po”, “via oral” for “via”; format: functional, organism-based; conditions: dose 2-6 mg/kg, time 8.0 day
[17] = AUC (0 to 24 hrs) in SD […] at 5 mg/kg, iv; format: ADME, organism-based; conditions: in vivo
[18] = Half life in SD […] at 5 mg/kg, iv; format: ADME, organism-based; conditions: in vivo
Mus musculus [19] = experiment: as §1, with “interstitial hemorrhage” for “neutrophil infiltration”; format: functional, organism-based; conditions: time 8.0 day
Mus musculus [20] = experiment: as §1, with “in interstitial hemorrhage” for “in neutrophil infiltration”, “at 6” for “at 2”; format: functional, organism-based; conditions: time 8.0 day
[21] = Tmax in SD […] at 5 mg/kg, iv; format: ADME, organism-based; conditions: in vivo
Mus musculus [22] = experiment: as §3, with “TNF-alpha” for “IL-1beta”; format: functional, organism-based; conditions: dose 2-6 mg/kg, time 8.0 day
[23] = Aqueous solubility of the compound in pH 4 PBS buffer measured after 24 hrs by shake flask method; format: physicochemical
[24] = Clearance in SD […] at 10 mg/kg, po; format: ADME, organism-based; conditions: in vivo
[25] = Half life in SD […] at 10 mg/kg, po; format: ADME, organism-based; conditions: in vivo
Mus musculus [26] = experiment: Antiinflammatory activity in LPS-induced C57BL/6 mouse ALI model assessed as reduction in IL-6 expression in BALF at 2 to 6 mg/kg, po administered once daily via gavage for 7 days followed by endotoxin challenge at 1 hr post last dose and subsequent LPS stimulation and measured after 24 hrs by ELISA; format: functional, organism-based; conditions: dose 2-6 mg/kg, time 8.0 day
[27] = AUC (0 to 24 hrs) in SD […] at 10 mg/kg, po; format: ADME, organism-based; conditions: in vivo

SMILES: O=C(O)c1cc(NS(=O)(=O)CCc2ccc(Cl)cc2)cc(-c2ccc(C3CCNCC3)cc2)c1
IC50 (P2Y purinoceptor 14 [2]): 28.6 nM | inhibition ([1]; filed as antagonist): 92.6%

SMILES: O=C(O)c1cc(NS(=O)(=O)CCc2ccccc2)cc(-c2ccc(C3CCNCC3)cc2)c1
inhibition ([1]; filed as antagonist): 82.7%

SMILES: O=C(O)c1cc(NS(=O)(=O)c2cccc(F)c2)cc(-c2ccc(C3CCNCC3)cc2)c1
inhibition ([1]; filed as antagonist): 76.2%

SMILES: CC(C)c1ccc(S(=O)(=O)Nc2cc(C(=O)O)cc(-c3ccc(C4CCNCC4)cc3)c2)cc1
inhibition ([1]; filed as antagonist): 69.5%

SMILES: O=C(O)c1cc(NS(=O)(=O)CCc2ccc(C(F)(F)F)cc2)cc(-c2ccc(C3CCNCC3)cc2)c1
Cmax [3]: 984 ng/mL | Tmax [4]: 1.55 h | Activity (Mus musculus [5]): Active | IC50 (P2Y purinoceptor 14 [2]): 5.6 nM | Activity [6]: Dose-dependent-effect | Kd (P2Y purinoceptor 14 [7]): 1730 nM | bioavailability [8]: 44% | Activity (Mus musculus [9]): Active | solubility thermodynamic at 24 h [10]: 108 µg/mL (≈ 203 µM) | Activity (Mus musculus [11]): Active | Cmax [12]: 731 ng/mL | Activity (Mus musculus [13]): Active | Activity (Mus musculus [14]): Active | Activity (Mus musculus [15]): Active | Activity (Mus musculus [16]): Dose-dependent-effect | AUC [17]: 1764 ng·h/mL | half-life [18]: 2.6 h | Activity (Mus musculus [19]): Not active; No Significant Interstitial Hemorrhage Observed | Activity (Mus musculus [20]): Active; Substantial Reduction Observed | Tmax [21]: 0.933 h | Activity (Mus musculus [22]): Active | solubility thermodynamic at 24 h [23]: 127 µg/mL (≈ 238 µM) | CL/F [24]: 18.6 mL/min/kg | half-life [25]: 4.5 h | inhibition ([1]; filed as antagonist): 99.6% | Activity (Mus musculus [26]): Active | AUC(0-t) [27]: 2170 ng·h/mL

SMILES: O=C(O)c1cc(NS(=O)(=O)c2ccc([N+](=O)[O-])cc2)cc(-c2ccc(C3CCNCC3)cc2)c1
inhibition ([1]; filed as antagonist): 82.6%

SMILES: O=C(O)c1cc(NS(=O)(=O)CCc2ccccc2F)cc(-c2ccc(C3CCNCC3)cc2)c1
IC50 (P2Y purinoceptor 14 [2]): 38.2 nM | inhibition ([1]; filed as antagonist): 86.4%

SMILES: O=C(O)c1cc(NS(=O)(=O)Cc2ccc(C(F)(F)F)cc2)cc(-c2ccc(C3CCNCC3)cc2)c1
IC50 (P2Y purinoceptor 14 [2]): 24.2 nM | inhibition ([1]; filed as antagonist): 96.5%

SMILES: COc1ccccc1S(=O)(=O)Nc1cc(C(=O)O)cc(-c2ccc(C3CCNCC3)cc2)c1
inhibition [1]: 14.3%

SMILES: O=C(O)c1cc(NS(=O)(=O)Cc2ccc([N+](=O)[O-])cc2)cc(-c2ccc(C3CCNCC3)cc2)c1
IC50 (P2Y purinoceptor 14 [2]): 20.6 nM | inhibition ([1]; filed as antagonist): 88.6%

SMILES: O=C(O)c1cc(NS(=O)(=O)Cc2ccc(Br)cc2)cc(-c2ccc(C3CCNCC3)cc2)c1
inhibition ([1]; filed as antagonist): 83.1%

Now from value to molecule:

inhibition ([1]; filed as antagonist): 68.9%
SMILES: O=C(O)c1cc(NS(=O)(=O)c2ccc(-c3ccc(Br)cc3)cc2)cc(-c2ccc(C3CCNCC3)cc2)c1

inhibition ([1]; filed as antagonist): 70.8%
SMILES: COc1ccc(S(=O)(=O)Nc2cc(C(=O)O)cc(-c3ccc(C4CCNCC4)cc3)c2)cc1

inhibition ([1]; filed as antagonist): 43.6%
SMILES: O=C(O)c1cc(NS(=O)(=O)c2ccc(-c3ccccc3F)cc2)cc(-c2ccc(C3CCNCC3)cc2)c1

IC50 (P2Y purinoceptor 14 [2]): 49.6 nM | inhibition ([1]; filed as antagonist): 85.2%
SMILES: O=C(O)c1cc(NS(=O)(=O)c2ccc(F)cc2)cc(-c2ccc(C3CCNCC3)cc2)c1

inhibition ([1]; filed as antagonist): 50.6%
SMILES: Cc1ccc(S(=O)(=O)Nc2cc(C(=O)O)cc(-c3ccc(C4CCNCC4)cc3)c2)cc1

inhibition ([1]; filed as antagonist): 60.5%
SMILES: O=C(O)c1cc(NS(=O)(=O)c2ccc(-c3ccccc3)cc2)cc(-c2ccc(C3CCNCC3)cc2)c1

inhibition ([1]; filed as antagonist): 79.4%
SMILES: O=C(O)c1cc(NS(=O)(=O)c2ccc(-c3ccc(Cl)cc3)cc2)cc(-c2ccc(C3CCNCC3)cc2)c1

inhibition ([1]; filed as antagonist): 81%
SMILES: O=C(O)c1cc(NS(=O)(=O)c2ccc(Br)cc2)cc(-c2ccc(C3CCNCC3)cc2)c1

Reference: ChEMBL document CHEMBL6182883, “Discovery of a series of novel 3-sulfonamido benzoic acid derivatives as promising P2Y14R antagonists for acute lung injury” (Eur J Med Chem, 2025)
